# Key:
# [1] = tested on: human lung cancer and breast cancer; settings: PNAS 2012 109 (24) 9623-9628; cited from earlier work
# CD137 = CD137 (Homo sapiens, UniProt Q07011); settings: several clinical trials, Ascierto et al., 2010; cited from earlier work
# [2] = tested on: human embryonic kidney (HEK) toll-like receptor-3 (TLR3) cells; assay: Bioactivity of poly I:C released from CryogelMA on HEK TLR3 cells; type: cell-based; settings: in vitro, supernatants over several days, absorbance
# Source text: FIG. 8 is a line graph showing CryogelMA poly I:C release and bioactivity. […] Doing this in the tumor microenvironment stimulates maturation of recruited antigen-presenting cells (APCs) and results in antitumor immunity.
# immune cells = assay: Click alginate cryogel with cytokines/chemokines placed under the skin, screened for immune cell accumulation; type: in vivo; settings: Cryoclick gels
# Source text: FIG. 12 is a series of photographs showing immune cell accumulation using GM-CSF—DC growth/differentiation factor in the device. FIGS. 12-15 show data using Cryoclick gels. Using a click alginate cryogel, a number of cytokines and chemokines were placed under the skin and screened for resulting activity in terms of immune cell accumulation.
# CD137, sequence (Q07011 24-255): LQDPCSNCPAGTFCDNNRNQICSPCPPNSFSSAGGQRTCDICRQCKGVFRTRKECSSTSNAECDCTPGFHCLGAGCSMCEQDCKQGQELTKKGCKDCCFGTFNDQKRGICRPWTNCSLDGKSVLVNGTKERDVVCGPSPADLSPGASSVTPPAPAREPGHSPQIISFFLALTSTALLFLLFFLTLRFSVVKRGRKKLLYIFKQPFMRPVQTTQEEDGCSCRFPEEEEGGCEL
compound,measurement,setting,value
COc1cccc2c1C(=O)c1c(O)c3c(c(O)c1C2=O)C[C@@](O)(C(=O)CO)C[C@@H]3O[C@H]1C[C@H](N)[C@H](O)[C@H](C)O1 [doxorubicin],cell death at the tumor close to the scaffold border,"tumor cells; day 3 after peritumoral injection, cleaved-caspase 3 staining",local cell death is induced
same,effect on surrounding normal tissue,"tumor cells; local delivery from the gels, FIG. 22",much less affected
CN(CC(=O)N(Cc1ccc(C2CCCCC2)cc1)c1ccc(C(=O)O)c(O)c1)S(=O)(=O)c1c(F)c(F)c(F)c(F)c1F [BP-1-102],activity against tumors in animals,[1],active
BMS-66513: anti-CD137 antibody,clinical response,CD137,partial remissions in disease
same,clinical toxicity,CD137,liver toxicity
polyinosine-polycytidylic acid [poly I:C],response of HEK TLR3 cells to supernatants,[2],produce a response measured by absorbance
"CCL20: Chemokine (C-C motif) ligand 20, DC chemokine",immune cell accumulation at gel placed under the skin,immune cells,bright DC staining at gel periphery
"IL-15: interleukin-15, T cell/NK cell survival factor",immune cell accumulation at gel placed under the skin,immune cells,accumulation of CD4 and CD8 T cells in the skin
